# Measurements from PMC8453848, “Effect of GLPG1205, a GPR84 Modulator, on CYP2C9, CYP2C19, and CYP1A2 Enzymes: In Vitro and Phase 1 Studies” (Clinical Pharmacology in Drug Development, 2021).
# Like-named read-outs stand apart in the source and are kept apart here.
# Assays:
# [1] = biological target: CYP2C19 (Homo sapiens, UniProt P33261); assay: Phase 1 drug-drug interaction study: PK of omeprazole and 5-hydroxyomeprazole with placebo or GLPG1205; conditions: for tmax: median (min‐max); for AUC: male, plasma, oral, arithmetic mean (CV%)
# CYP2C19, sequence (P33261 whole entry): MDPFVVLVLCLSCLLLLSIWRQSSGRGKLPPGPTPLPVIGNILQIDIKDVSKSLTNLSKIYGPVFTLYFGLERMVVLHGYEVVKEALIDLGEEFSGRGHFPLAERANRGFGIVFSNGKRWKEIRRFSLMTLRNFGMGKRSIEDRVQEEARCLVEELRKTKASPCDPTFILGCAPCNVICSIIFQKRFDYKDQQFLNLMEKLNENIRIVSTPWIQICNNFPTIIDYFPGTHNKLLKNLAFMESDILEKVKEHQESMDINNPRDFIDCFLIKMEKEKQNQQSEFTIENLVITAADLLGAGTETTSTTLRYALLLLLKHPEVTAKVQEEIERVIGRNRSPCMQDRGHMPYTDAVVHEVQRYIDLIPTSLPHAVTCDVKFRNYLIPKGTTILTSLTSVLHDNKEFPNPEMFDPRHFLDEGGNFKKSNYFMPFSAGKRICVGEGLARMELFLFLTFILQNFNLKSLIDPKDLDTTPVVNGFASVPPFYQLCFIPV
# Description: Prior to injection into the analytical system, isolation of omeprazole, its metabolite and the deuterated IS (omeprazole –d3) from 200 µL of human Li-heparin plasma was performed by solid phase extraction performed on Oasis HBL 60mg 3cc cartridges (Waters, Zellik, Belgium). The elution from the cartridges was done with 1 mL of methanol and then the eluate was evaporated to dryness under a stream of nitrogen at approximatively +35°C. The residue was reconstituted with 0.2 mL of mobile phase and then centrifuged at about 3500 rpm for 5 minutes at +5°C. 120 µL of the clear supernatant was transferred into injection vials. […] Chromatographic separation was performed on a Zorbax XBD-C8 column (Agilent, Eindhoven, The Netherlands) (50 x 4.6 mm, 3.5 µm from Interchim) by using a Nexera HLPC system (Shimadzu, Kyoto, Japan) in isocratic elution mode.
# [2] = biological target: CYP2C9 (Homo sapiens, UniProt P11712); conditions: for AUC0‐inf: arithmetic mean (CV%); for tmax: median (min‐max)
# CYP2C9, sequence (P11712 whole entry): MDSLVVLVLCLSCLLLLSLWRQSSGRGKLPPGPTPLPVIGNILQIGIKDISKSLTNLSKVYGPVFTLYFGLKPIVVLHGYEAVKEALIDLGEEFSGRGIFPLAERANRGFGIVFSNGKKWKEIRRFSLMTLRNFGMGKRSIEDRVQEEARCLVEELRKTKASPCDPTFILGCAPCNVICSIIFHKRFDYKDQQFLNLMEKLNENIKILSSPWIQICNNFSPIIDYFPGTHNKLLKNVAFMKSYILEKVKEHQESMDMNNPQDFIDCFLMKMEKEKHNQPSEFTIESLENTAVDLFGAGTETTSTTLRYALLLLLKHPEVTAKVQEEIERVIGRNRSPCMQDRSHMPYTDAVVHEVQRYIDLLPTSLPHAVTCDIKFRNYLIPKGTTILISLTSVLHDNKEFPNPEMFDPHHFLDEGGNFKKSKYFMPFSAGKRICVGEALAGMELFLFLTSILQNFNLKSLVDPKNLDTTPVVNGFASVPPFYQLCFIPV
# Description: (§1) This was a phase 1 single‐center, randomized, double‐blind, placebo‐controlled crossover drug‐drug interaction study (ClinicalTrials.gov number NCT02623296).
# (§2) Subjects received treatment in 1 of 2 sequences (AB or BA, n = 7 in each sequence). In treatment A, oral doses of GLPG1205 100 mg once a day were administered from day 1 to day 12. On day 13, GLPG1205 100 mg (capsule form) was coadministered with the CYP450 substrates following an overnight fast. In treatment B, oral doses of placebo (capsule form) once a day were administered from day 1 to day 12. On day 13 placebo was coadministered with the CYP450 substrates following an overnight fast. Dose administration on day 13 was followed by a 4‐hour fast. The 2 treatment sequences were separated by a washout period of at least 28 days.
# (§3) Pharmacokinetic assessments included analysis of GLPG1205, and the CYP450 substrates and their metabolites in plasma. In each treatment period, blood samples were collected by venipuncture in the arm predose on days 7, 9, 10, and 13 and on day 13 at 1, 2, 4, 6, 8, 12, 24 (day 14), 48 (day 15), 96 (day 17), and 144 (day 19) hours postdose for PK analysis. For treatment period 2, an additional blood sample was also taken at 168 hours (day 20; follow‐up visit) postdose. Samples collected on days 7, 9, and 10 were for GLPG1205 analysis only. Blood samples of 2 mL were collected for the determination of GLPG1205 in plasma, and of 9 mL for the determination of CYP450 substrates and their metabolites. After collection, blood samples were immediately chilled using an ice bath. Within 30 minutes of collection, samples were separated by centrifugation at 1500 g for 10 minutes at 4°C. For GLPG1205, ≥250 μL of plasma was transferred into 2.0‐mL polypropylene tubes and stored at –20°C or below immediately after centrifugation at the clinical center until shipment to analysis centers. For CYP450 substrates, 500 μL of plasma was transferred to 2.0‐mL polypropylene tubes. […] All samples were shipped on dry ice to analysis centers. Repetitive freeze‐thaw cycles were avoided to maintain the integrity of samples. Plasma concentrations were measured using LC‐MS/MS; further details can be found in the Supplemental Methods. Pharmacokinetic calculations were performed by SGS LSS using Phoenix WinNonLin 6.2 or higher (Pharsight Corporation, Palo Alto, California). […] Values below the quantification limit were imputed by 0 for the calculation of descriptive statistics except for geometric mean and geometric coefficient of variation (CV), for which it was imputed by half the lower limit of quantification.
# (§4) An analysis of variance (ANOVA) with treatment, treatment period, and sequence as fixed effects and subject as a random effect was performed on natural log‐transformed PK parameters (R, Cmax, AUC0‐inf, AUC0‐t, and t1/2,λz) of CYP450 substrates and their metabolites on day 13. The treatment effect for tmax was assessed using the nonparametric Wilcoxon's signed rank test. Point estimates were calculated as the geometric mean of the individual ratios for each parameter for treatment A (GLPG1205 + CYP450 substrates) relative to treatment B (placebo + CYP450 substrates) and expressed as fold difference.
# [3] = biological target: T1, CYP1A2 (Homo sapiens, UniProt P05177); conditions: for tmax: median (min‐max); for R_AUC0‐t (metabolite‐over‐parent ratio): geometric mean (geometric CV%)
# T1 sequence (P05177 1-516): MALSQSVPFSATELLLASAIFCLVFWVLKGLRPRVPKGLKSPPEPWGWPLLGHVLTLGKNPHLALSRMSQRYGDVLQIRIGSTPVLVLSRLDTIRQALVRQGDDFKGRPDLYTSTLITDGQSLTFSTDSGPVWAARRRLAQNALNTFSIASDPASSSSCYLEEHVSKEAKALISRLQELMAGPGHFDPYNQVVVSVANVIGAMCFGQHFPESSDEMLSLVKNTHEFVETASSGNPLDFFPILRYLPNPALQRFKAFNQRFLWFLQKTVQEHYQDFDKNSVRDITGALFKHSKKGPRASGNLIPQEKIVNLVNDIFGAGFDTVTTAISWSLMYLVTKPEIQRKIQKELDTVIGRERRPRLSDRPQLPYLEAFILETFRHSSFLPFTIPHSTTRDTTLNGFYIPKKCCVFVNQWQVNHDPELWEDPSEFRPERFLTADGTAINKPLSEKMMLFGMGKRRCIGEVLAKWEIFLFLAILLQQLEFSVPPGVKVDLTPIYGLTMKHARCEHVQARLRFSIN
# Description: as §1, §2, §3, §4
# [4] = biological target: T1, CYP1A2; assay: clinical; conditions: male, plasma, oral; for half-life: t1/2, λz
# Description: as §1, §2, §3, §4
# [5] = GLPG1205 100 mg once a day + warfarin
# [6] = AUC0‐t, GLPG1205 100 mg once a day + caffeine, arithmetic mean (CV%)
# [7] = AUC0‐t, Placebo + caffeine, arithmetic mean (CV%)
# [8] = GLPG1205 100 mg once a day + caffeine 100 mg day 13, n = 14, arithmetic mean (CV%)
# [9] = Placebo + caffeine 100 mg day 13, n = 14, arithmetic mean (CV%)
# [10] = GLPG1205 relative to placebo (ANOVA)
# [11] = GLPG1205 100 mg once a day + caffeine
compound,measurement,setting,value
"COc1ccc2nc([S+]([O-])Cc3ncc(CO)c(OC)c3C)[nH]c2c1 (centres unmarked) [5‐Hydroxyomeprazole, 5‐hydroxyomeprazole]","AUC0‐inf, PE (90% CI) of least‐squares geometric means ratio","[1]; human, in vivo",1.08 (0.98‐1.20)
same,"AUC0‐t, PE (90% CI) of least‐squares geometric means ratio","[1]; human, in vivo",1.08 (0.96‐1.21)
same,"R_AUC0‐inf, PE (90% CI) of least‐squares geometric means ratio",[1]; in vivo,0.83 (0.77‐0.89)
same,"R_AUC0‐t, PE (90% CI) of least‐squares geometric means ratio",[1]; in vivo,0.84 (0.79‐0.89)
"CC(=O)C[C@@H](c1ccccc1)c1c(O)c2ccc(O)cc2oc1=O [(S)‐7‐Hydroxywarfarin, (S)‐7‐hydroxywarfarin]","AUC0‐t, PE (90% CI) of least‐squares geometric means ratio","[2]; human, in vivo",1.15 (1.00‐1.32)
same,"R_AUC0‐t, PE (90% CI) of least‐squares geometric means ratio",[2]; in vivo,1.01 (0.87‐1.19)
"CC(=O)C[C@@H](c1ccccc1)c1c(O)c2ccccc2oc1=O [(S)‐Warfarin, (S)‐warfarin]",Cmax,"[2]; GLPG1205 100 mg once a day + warfarin 10 mg day 13, n = 14, arithmetic mean (CV%)",0.481 (19.8) μg/mL
same,AUC0‐inf,[2]; [5],17.5 (24.9) μg·h/mL
same,tmax,[2]; [5],2.0 (0.5‐4.0) h
same,Cmax,"[2]; Placebo + warfarin 10 mg day 13, n = 14, arithmetic mean (CV%)",0.453 (21.3) μg/mL
same,AUC0‐inf,[2]; Placebo + warfarin,15.1 (21.1) μg·h/mL
same,tmax,[2]; Placebo + warfarin,2.0 (0.5‐4.0) h
"Cn1c(=O)c2c(ncn2C)n(C)c1=O [Caffeine, caffeine]",tmax,[3]; Placebo + caffeine,1.0 (0.3‐3.0) h
same,AUC,"[4]; AUC0‐inf, GLPG1205 100 mg once a day + caffeine, arithmetic mean (CV%)",17400 ng·h/mL
same,AUC,"[4]; AUC0‐inf, Placebo + caffeine, n = 12, arithmetic mean (CV%)",18700 ng·h/mL
same,AUC,[4]; [6],15700 ng·h/mL
same,AUC,[4]; [7],16300 ng·h/mL
same,Cmax,[4]; [8],2160 ng/mL
same,Cmax,[4]; [9],2150 ng/mL
same,half-life,"[4]; GLPG1205 100 mg once a day + caffeine, arithmetic mean (CV%)",4.9 h
same,half-life,"[4]; Placebo + caffeine, n = 13, arithmetic mean (CV%)",5.73 h
"COc1ccc2[nH]c([S+]([O-])Cc3ncc(C)c(OC)c3C)nc2c1 (centres unmarked) [Omeprazole, omeprazole, reference compound]",tmax,[1]; GLPG1205 100 mg once a day + omeprazole,2.0 (1.0‐5.0) h
same,"AUC0‐inf, PE (90% CI) of least‐squares geometric means ratio",[1]; [10],1.36 (1.18‐1.58)
same,"AUC0‐t, PE (90% CI) of least‐squares geometric means ratio",[1]; [10],1.28 (1.10‐1.49)
same,"Cmax, PE (90% CI) of least‐squares geometric means ratio",[1]; [10],1.30 (1.03‐1.65)
same,"t1/2, λz, PE (90% CI) of least‐squares geometric means ratio",[1]; [10],1.09 (0.97‐1.22)
same,tmax,[1]; Placebo + omeprazole,3.0 (2.0‐5.0) h
same,AUC,"[1]; human, 20 mg, AUC0‐inf, Placebo + omeprazole",520 ng·h/mL
same,AUC,"[1]; human, 20 mg, AUC0‐t, Placebo + omeprazole",486 ng·h/mL
same,AUC,"[1]; human, AUC0‐inf, GLPG1205 100 mg once a day + omeprazole",548 ng·h/mL
same,AUC,"[1]; human, AUC0‐t, GLPG1205 100 mg once a day + omeprazole",563 ng·h/mL
"Cn1c(=O)[nH]c2ncn(C)c2c1=O [Paraxanthine, paraxanthine]",R_AUC0‐t (metabolite‐over‐parent ratio),[3]; [11],0.538 (27.7)
same,tmax,[3]; [11],7.0 (0.3‐12.0) h
same,"AUC0‐t, PE (90% CI) of least‐squares geometric means ratio",[3]; [10],0.96 (0.79‐1.16)
same,"Cmax, PE (90% CI) of least‐squares geometric means ratio",[3]; [10],1.08 (0.97‐1.21)
same,"R_AUC0‐t, PE (90% CI) of least‐squares geometric means ratio",[3]; [10],1.00 (0.87‐1.15)
same,R_AUC0‐t (metabolite‐over‐parent ratio),[3]; Placebo + caffeine,0.539 (30.5)
same,AUC,[4]; [6],8600 ng·h/mL
same,AUC,[4]; [7],8430 ng·h/mL
same,Cmax,[4]; [8],634 ng/mL
same,Cmax,[4]; [9],577 ng/mL
